This is an account of results in PMC8374946 (European journal of pharmacology, 2021).

SMILES strings stand for the structures.

For one test, the target named is human TRPV1 channel (Homo sapiens, UniProt Q8NER1). The test can be described thus: TRPV1 channel Ca2+ fluorescent. It is filed as cell-based. As to conditions: for TRPV1 channel Ca2+ signal Emax: normalized to signal with 1 µM capsaicin, HEK293T-TRPV1 cells.
Test [1] concerns nontransfected HEK293T cells. The test can be described thus: Ca2+ fluorescent assay in nontransfected HEK293T cells. The conditions noted are these: 10 µM for XLR-11, UR-144, AM1220. In kind it is cell-based.
In the next test the test system is TRPV1 channels. The conditions noted are these: read-out: EC50 for TRPV1 channel activation; ref Soethoudt et al., 2017; cited from earlier work.
The target in test [2] is human cannabinoid type-1 (CB1) receptor (Homo sapiens, UniProt P21554). In kind it is cell-based.
Sequence of human cannabinoid type-1 (CB1) receptor (P21554 whole entry): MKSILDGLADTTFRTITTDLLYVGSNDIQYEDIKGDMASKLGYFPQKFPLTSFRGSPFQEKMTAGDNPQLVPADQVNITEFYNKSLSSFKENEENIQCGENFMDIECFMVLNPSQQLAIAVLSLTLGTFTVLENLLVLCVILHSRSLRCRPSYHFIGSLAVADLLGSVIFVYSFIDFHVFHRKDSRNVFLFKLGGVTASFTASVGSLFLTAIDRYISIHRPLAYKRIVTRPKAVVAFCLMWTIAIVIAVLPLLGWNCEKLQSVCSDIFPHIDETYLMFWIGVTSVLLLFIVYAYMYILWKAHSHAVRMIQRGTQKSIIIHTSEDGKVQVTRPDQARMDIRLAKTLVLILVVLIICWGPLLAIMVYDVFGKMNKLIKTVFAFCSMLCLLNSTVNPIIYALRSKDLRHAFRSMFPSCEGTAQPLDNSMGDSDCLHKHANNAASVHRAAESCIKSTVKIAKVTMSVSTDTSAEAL

Sequence of human TRPV1 channel (Q8NER1 whole entry): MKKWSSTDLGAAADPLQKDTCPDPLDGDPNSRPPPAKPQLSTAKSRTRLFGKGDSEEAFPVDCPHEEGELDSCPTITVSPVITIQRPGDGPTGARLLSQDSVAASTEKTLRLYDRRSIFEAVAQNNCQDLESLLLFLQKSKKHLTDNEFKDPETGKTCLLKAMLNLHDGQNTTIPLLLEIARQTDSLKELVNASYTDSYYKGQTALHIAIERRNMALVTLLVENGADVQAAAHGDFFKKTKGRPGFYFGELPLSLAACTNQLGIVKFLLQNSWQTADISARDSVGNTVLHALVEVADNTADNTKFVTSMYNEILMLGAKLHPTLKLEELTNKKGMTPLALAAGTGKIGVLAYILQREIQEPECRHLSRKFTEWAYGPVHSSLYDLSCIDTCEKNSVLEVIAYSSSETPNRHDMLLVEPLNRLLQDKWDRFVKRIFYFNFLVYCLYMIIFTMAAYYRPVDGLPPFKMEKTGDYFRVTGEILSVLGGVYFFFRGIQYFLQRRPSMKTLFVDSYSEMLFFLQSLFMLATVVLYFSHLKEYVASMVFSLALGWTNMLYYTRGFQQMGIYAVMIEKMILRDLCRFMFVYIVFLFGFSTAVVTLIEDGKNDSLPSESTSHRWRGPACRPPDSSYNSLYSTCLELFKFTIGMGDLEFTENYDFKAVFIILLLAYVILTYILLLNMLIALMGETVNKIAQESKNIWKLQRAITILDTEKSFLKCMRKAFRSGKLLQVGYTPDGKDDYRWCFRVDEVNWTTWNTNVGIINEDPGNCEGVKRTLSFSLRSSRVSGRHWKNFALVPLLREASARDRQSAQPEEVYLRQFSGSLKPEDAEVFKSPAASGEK

Regarding `CCCCC/C=C\C/C=C\C/C=C\C/C=C\CCCC(=O)NCCO` [AEA, N-arachidonoylethanolamine], at human TRPV1 channel, the EC50 amounted to 2.1 µM and the “TRPV1 channel Ca2+ signal Emax” value was 0.35. Moreover, in test [1], the “Ca2+ transients in nontransfected HEK293T cells” value (from here on “Ca2+ transients”) is on record as “not observed”.
On to `CN1CCCCC1Cn1cc(C(=O)c2cccc3ccccc23)c2ccccc21` (stereo not drawn) [AM1220], for which, at human TRPV1 channel, the “TRPV1 channel Ca2+ signal Emax” value was determined as 0.26. The “Ca2+ transients” value in test [1] was “not observed”.
On to `CCCC(C)(C)c1ccc2c(c1)OC(C)(C)[C@@H]1CC=C(C)C[C@@H]21` [JWH-133], for which the 50% effective concentration (EC50) in the test on TRPV1 channels is 8.2 µM. Further, the “CB1 receptor-mediated activation of the GIRK channels” value in test [2] is “no CB1 receptor-mediated activation”.
Regarding `CCCCCn1cc(C(=O)C2C(C)(C)C2(C)C)c2ccccc21` [UR-144], at human TRPV1 channel, the “TRPV1 channel Ca2+ signal Emax” value came to 0.23. Also, in test [1], the “Ca2+ transients” value was “not observed”.
In the same order, the values of `CC1(C)C(C(=O)c2cn(CCCCCF)c3ccccc23)C1(C)C` [XLR-11] are 0.39 and “not observed”.
For `COc1cc(CNC(=O)CCCC/C=C/C(C)C)ccc1O` [capsaicin], the “Ca2+ transients” value in test [1] is reported as “not observed”.

The EC50 is the concentration needed to bring the measured effect to its halfway point.
